Measured values: patent US20250136722A1, “CYTOTOXICITY TARGETING CHIMERAS” (GLAXOSMITHKLINE INTELLECTUAL PROPERTY DEVELOPMENT LIMITED, priority 2021, published 2025)
Where “and” joins values, the source holds several entries; their conditions need not be identical. Equal entries are not always repeated.

Tests used:
[1] = target: T1, CHOK1 cells engineered to overexpress human CCR2 (Homo sapiens, UniProt P41597); assay: Antibody dependent cellular cytotoxicity (ADCC) reporter assay (Example 199); format: cell-based; settings: with anti-cotinine antibody SEQ ID NO: 11/12; CHOK1-human CCR2 target cells, Jurkat FcγRIIIa NFAT-luciferase reporter cells; 12-18 hours; read-out: ADCC Reporter Assay pEC50 (converted)
T1 construct: expressed in transfected cells; host or cells: CHOK1 cells
Method in brief: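 CHOK1-hCCR2 target cells are co-incubated for 12–18 h with Jurkat FcγRIIIa/NFAT-luciferase reporter cells, ARM compound (1 pM–10 μM) and anti-cotinine antibody with a DE-mutant human IgG1 Fc (0.01–200 μg/mL). Luminescence is expressed as signal:background against no-compound wells; EC50 comes from nonlinear fit and is reported as pEC50, averaged across runs.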

[2] = target: Anti-cotinine antibody (SEQ ID NO: 11 / SEQ ID NO: 12, rabbit variable region with human IgG1 Fc domain); assay: Binding of anti-cotinine antibody to ARM compounds by SPR, Biacore T200, 37° C. (Example 202); settings: pH 7.4, rabbit variable region/human IgG1 Fc antibody captured on protein A
Method: Anti-cotinine antibodies having a heavy chain sequence of SEQ ID NO: 11 and a light chain sequence of SEQ ID NO: 12 (rabbit variable region with human IgG1 Fc domain containing a DE mutation (S239D/1332E)) were captured on one or more flow cells of a protein A sensor chip (Cytiva) using a Biacore T200 while reserving flow cell 1 as a reference. Following capture, a 3000 second wait step was included to reduce drift during compound analysis. ARM compounds of Formula (I) were then injected at 100 μL/min with 200 and 2000 second association and dissociation times. The entire experiment was run at 37° C. with running buffer containing 10 mM HEPES pH 7.4, 150 mM NaCl, 0.005% P20 and 1% DMSO. ARM compounds of Formula (I) were titrated with a top concentration of 200 nM using a 3-fold 5-point dilution series and a corresponding 5-injection buffer cycle was run for blank subtraction. Data were double referenced by subtracting the response of the reference flow cell from that of the antibody-containing flow cell and subsequently subtracting the referenced blank sensorgrams. Following compound analysis, the surface was regenerated using a 30 second injection of pH 1.5 glycine at a flow rate of 30 μL/min after which antibody was re-captured. The experiment was run using Biacore T200 control software and evaluated using Biacore T200 Evaluation software. Curves were fit with a 1:1 kinetic binding model to obtain kon(1/Ms), koff(1/s), Kd (M) determined as koff/kon, and residence time determined as 1/koff. (s).
Anti-cotinine antibody was tested for binding to ARMs compounds of Formula (I) of the invention in the above assay in or more experimental runs and the results are shown in Table 5 below. Affinity is reported as a pKd value. The pKd value is the negative log of the Kd value, wherein the Kd value is the dissociation constant measured in molar (M) as noted above. For compounds tested in more than one experimental run, the pKd value is reported as an average.

SMILES	EC50 [1]	pKd of Antibody for ARM Compound of Formula (I) [2]
CC(C)N(C)[C@@H]1CC[C@H](N2CC[C@H](Nc3ncnc4ccc(C(F)(F)F)cc34)C2=O)[C@H](NC(=O)[C@H]2CC[C@H](CNC(=O)CCCC(=O)NCCCOCCCNC(=O)[C@H]3CC(=O)N(C)[C@@H]3c3cccnc3)CC2)C1 [Example 20]	0.0832 nM	8.8705
CC(C)N(C)[C@@H]1CC[C@H](N2CC[C@H](Nc3ncnc4ccc(C(F)(F)F)cc34)C2=O)[C@H](NC(=O)COCCNC(=O)COCCOCCNC(=O)CCNC(=O)[C@H]2CC(=O)N(C)[C@@H]2c2cccnc2)C1 [Example 143, (2S,3S)-N-(1-(((1R,2S,5R)-5-(Isopropyl(methyl)amino)-2-((S)-2-oxo-3-((6-(trifluoromethyl)quinazolin-4-yl)amino)pyrrolidin-1-yl)cyclohexyl)amino)-1,7,16-trioxo-3,9,12-trioxa-6,15-diazaoctadecan-18-yl)-1-methyl-5-oxo-2-(pyridin-3-yl)pyrrolidine-3-carboxamide]	3.24 nM	9.275
CC(C)N(C)[C@@H]1CC[C@H](N2CC[C@H](Nc3ncnc4ccc(C(F)(F)F)cc34)C2=O)[C@H](NC(=O)[C@H]2CC[C@H](NC(=O)CCCOCCCCOCCNC(=O)[C@H]3CC(=O)N(C)[C@@H]3c3cccnc3)CC2)C1 [Example 121, (2S,3S)-N-(2-(4-(4-(((1R,4r)-4-(((1R,2S,5R)-5-(Isopropyl(methyl)amino)-2-((S)-2-oxo-3-((6-(trifluoromethyl)quinazolin-4-yl)amino)pyrrolidin-1-yl)cyclohexyl)carbamoyl)cyclohexyl)amino)-4-oxobutoxy)butoxy)ethyl)-1-methyl-5-oxo-2-(pyridin-3-yl)pyrrolidine-3-carboxamide]	5.28 nM	9.332
CC(C)N(C)[C@@H]1CC[C@H](N2CC[C@H](Nc3ncnc4ccc(C(F)(F)F)cc34)C2=O)[C@H](NC(=O)CCOCCNC(=O)CCOCCNC(=O)CCOCCNC(=O)[C@H]2CC(=O)N(C)[C@@H]2c2cccnc2)C1 [Example 46]	0.501 nM	9.074
CC(C)N(C)[C@@H]1CC[C@H](N2CC[C@H](Nc3ncnc4ccc(C(F)(F)F)cc34)C2=O)[C@H](NC(=O)CCCC(=O)N[C@H]2CC[C@H](CNC(=O)CCOCCNC(=O)[C@H]3CC(=O)N(C)[C@@H]3c3cccnc3)CC2)C1 [compound 180]	0.456 nM	9.249
CC(C)N(C)[C@@H]1CC[C@H](N2CC[C@H](Nc3ncnc4ccc(C(F)(F)F)cc34)C2=O)[C@H](NC(=O)COCCNC(=O)CCNC(=O)COCCOCCNC(=O)[C@H]2CC(=O)N(C)[C@@H]2c2cccnc2)C1 [Example 79]	5.2 nM	9.126
CC(C)N(C)[C@@H]1CC[C@H](N2CC[C@H](Nc3ncnc4ccc(C(F)(F)F)cc34)C2=O)[C@H](NC(=O)CCOCCNC(=O)[C@H]2CC[C@@H](NC(=O)CCOCCNC(=O)[C@H]3CC(=O)N(C)[C@@H]3c3cccnc3)CC2)C1 [Example 110]	0.167 nM	8.9085
CN1C(=O)C[C@H](C(=O)NCC(=O)NCCOCCOCCC(=O)N[C@H]2CC[C@@H](C(=O)N[C@@H]3C[C@H](NC(C)(C)C)CC[C@@H]3N3CC[C@H](Nc4ncnc5ccc(C(F)(F)F)cc45)C3=O)CC2)[C@H]1c1cccnc1 [Example 65]	1.4 nM and 0.498 nM	8.648
CC(C)N(C)[C@@H]1CC[C@H](N2CC[C@H](Nc3ncnc4ccc(C(F)(F)F)cc34)C2=O)[C@H](NC(=O)[C@H]2C[C@@H](NC(=O)CCOC[C@H]3CC[C@H](COCCNC(=O)[C@H]4CC(=O)N(C)[C@@H]4c4cccnc4)CC3)C2)C1 [Example 55]	0.377 nM	9.4085
CC(C)N(C)[C@@H]1CC[C@H](N2CC[C@H](Nc3ncnc4ccc(C(F)(F)F)cc34)C2=O)[C@H](NC(=O)[C@H]2CC[C@@H](NC(=O)CCOCCNC(=O)COCCCNC(=O)[C@H]3CC(=O)N(C)[C@@H]3c3cccnc3)CC2)C1 [Example 175, (2S,3S)-N-(3-(2-((2-(3-(((1 S,4s)-4-(((1R,2S,5R)-5-(Isopropyl(methyl)amino)-2-((S)-2-oxo-3-((6-(trifluoromethyl)quinazolin-4-yl)amino)pyrrolidin-1-yl)cyclohexyl)carbamoyl)cyclohexyl)amino)-3-oxopropoxy)ethyl)amino)-2-oxoethoxy)propyl)-1-methyl-5-oxo-2-(pyridin-3-yl)pyrrolidine-3-carboxamide]	0.794 nM and 0.398 nM	9.244
CC(C)N(C)[C@@H]1CC[C@H](N2CC[C@H](Nc3ncnc4ccc(C(F)(F)F)cc34)C2=O)[C@H](NC(=O)[C@H]2CC[C@H](NC(=O)CCO[C@H]3CC[C@H](OCCNC(=O)[C@H]4CC(=O)N(C)[C@@H]4c4cccnc4)CC3)CC2)C1 [Example 113]	4.82 nM and 8.17 nM	9.767
CN1C(=O)C[C@H](C(=O)NCCO[C@H]2CC[C@@H](OCCCC(=O)N[C@H]3CC[C@H](C(=O)N[C@@H]4C[C@H](NC(C)(C)C)CC[C@@H]4N4CC[C@H](Nc5ncnc6ccc(C(F)(F)F)cc56)C4=O)CC3)CC2)[C@H]1c1cccnc1 [Example 2]	5.06 nM	9.4775
CC(C)N(C)[C@@H]1CC[C@H](N2CC[C@H](Nc3ncnc4ccc(C(F)(F)F)cc34)C2=O)[C@H](NC(=O)[C@H]2CC[C@@H](NC(=O)COCCNC(=O)CCOCCNC(=O)[C@H]3CC(=O)N(C)[C@@H]3c3cccnc3)CC2)C1 [compound 152]	1.4 nM	9.111
CC(C)N(C)[C@@H]1CC[C@H](N2CC[C@H](Nc3ncnc4ccc(C(F)(F)F)cc34)C2=O)[C@H](NC(=O)[C@H]2CC[C@@H](NC(=O)COCCOCCNC(=O)CNC(=O)[C@H]3CC(=O)N(C)[C@@H]3c3cccnc3)CC2)C1 [Example 171, (2S,3S)-N-(2-((2-(2-(2-(((1S,4s)-4-(((1R,2S,5R)-5-(Isopropyl(methyl)amino)-2-((S)-2-oxo-3-((6-(trifluoromethyl)quinazolin-4-yl)amino)pyrrolidin-1-yl)cyclohexyl)carbamoyl)cyclohexyl)amino)-2-oxoethoxy)ethoxy)ethyl)amino)-2-oxoethyl)-1-methyl-5-oxo-2-(pyridin-3-yl)pyrrolidine-3-carboxamide]	0.802 nM	8.7865
CC(C)N(C)[C@@H]1CC[C@H](N2CC[C@H](Nc3ncnc4ccc(C(F)(F)F)cc34)C2=O)[C@H](NC(=O)COCCNC(=O)COCCNC(=O)CCOCCNC(=O)[C@H]2CC(=O)N(C)[C@@H]2c2cccnc2)C1 [Example 151, (2S,3S)-N-(1-(((1R,2S,5R)-5-(Isopropyl(methyl)amino)-2-((S)-2-oxo-3-((6-(trifluoromethyl)quinazolin-4-yl)amino)pyrrolidin-1-yl)cyclohexyl)amino)-1,7,13-trioxo-3,9,16-trioxa-6,12-diazaoctadecan-18-yl)-1-methyl-5-oxo-2-(pyridin-3-yl)pyrrolidine-3-carboxamide]	3.03 nM	9.0755
CC(C)N(C)[C@@H]1CC[C@H](N2CC[C@H](Nc3ncnc4ccc(C(F)(F)F)cc34)C2=O)[C@H](NC(=O)COCCNC(=O)CNC(=O)CCOCCOCCNC(=O)[C@H]2CC(=O)N(C)[C@@H]2c2cccnc2)C1 [Example 80]	1.58 nM	9.109
CC(C)N(C)[C@@H]1CC[C@H](N2CC[C@H](Nc3ncnc4ccc(C(F)(F)F)cc34)C2=O)[C@H](NC(=O)CCOCCNC(=O)COCCNC(=O)CCOCCNC(=O)[C@H]2CC(=O)N(C)[C@@H]2c2cccnc2)C1 [Example 163, (2S,3S)-N-(19-(((1R,2S,5R)-5-(Isopropyl(methyl)amino)-2-((S)-2-oxo-3-((6-(trifluoromethyl)quinazolin-4-yl)amino)pyrrolidin-1-yl)cyclohexyl)amino)-6,12,19-trioxo-3,10,16-trioxa-7,13-diazanonadecyl)-1-methyl-5-oxo-2-(pyridin-3-yl)pyrrolidine-3-carboxamide]	0.631 nM	9.07
